A word on the Ki: it is a measure of affinity in units of concentration, obtained from inhibition or displacement. Read a high Ki as lower affinity.

The source of these data is ChEMBL document CHEMBL1132473 (J Med Chem, 1999).

In the test the target is 4-aminobutyrate aminotransferase, mitochondrial (Sus scrofa, UniProt P80147). The experiment in a line: Compound was tested for the inhibition of Gamma-amino-N-butyrate transaminase (GABA-AT).
Chain of 4-aminobutyrate aminotransferase, mitochondrial (P80147 whole entry): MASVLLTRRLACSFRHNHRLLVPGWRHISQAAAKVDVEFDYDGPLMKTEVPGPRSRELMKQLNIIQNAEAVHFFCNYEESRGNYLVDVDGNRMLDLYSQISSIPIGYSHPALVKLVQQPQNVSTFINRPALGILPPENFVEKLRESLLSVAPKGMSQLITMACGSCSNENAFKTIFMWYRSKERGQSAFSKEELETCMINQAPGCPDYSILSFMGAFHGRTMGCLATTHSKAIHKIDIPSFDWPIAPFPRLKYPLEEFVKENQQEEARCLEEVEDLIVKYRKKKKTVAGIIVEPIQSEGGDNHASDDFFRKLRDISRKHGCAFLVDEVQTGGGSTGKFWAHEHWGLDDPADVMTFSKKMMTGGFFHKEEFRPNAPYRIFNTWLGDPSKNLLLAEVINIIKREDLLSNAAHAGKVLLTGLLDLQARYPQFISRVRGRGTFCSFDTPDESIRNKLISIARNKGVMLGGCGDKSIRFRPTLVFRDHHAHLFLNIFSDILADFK
The compound `NC1C=CC(C(=O)O)C1` (racemic) registered a Ki of 0.6 mM.

In turn, `N[C@@H]1C=C[C@@H](C(=O)O)C1` showed an inhibition constant (Ki) of 38 mM.

Regarding `N[C@@H]1CC=C(C(=O)O)C1`, the affinity corresponds to a Ki of 1.2 mM.

With `N[C@H]1CC=C(C(=O)O)C1`, affinity was put at a Ki of 72 mM.

`N[C@H]1C=C[C@@H](C(=O)O)C1` had a Ki of 2.7 mM.

Compound `N[C@@H]1C=C[C@H](C(=O)O)C1` returned a Ki of 0.052 mM. Against the preceding compound, the Ki is about 52-fold lower.
